Laboratory results as given in US20240116856A1 (Young BioPharma, LLC, priority 2020, published 2024).
≈ marks a conversion by molar mass, not a printed value. Entries after “also recorded” stand apart in the source; their conditions may differ.

What was measured:
TRPV1 = target: T1, TRPV1 (Mus musculus, UniProt Q704Y3); experiment: Ca2+ imaging of primary mouse dorsal root ganglion (DRG) neurons, TRPV1 desensitization; type: cell-based; settings: then capsaicin 0.5 μM
T1 construct: DRG was isolated from male and female mice expressing GCaMP6f in neurons; endogenous in cells; host or cells: dissociated primary DRG neurons from GCaMP6f-expressing mice

[1] = system: Src protein activation in NCI-H460 cells; experiment: Cancer cell immunocytochemistry assay, Phospho-Src (Y416), NCI-H460; type: cell-based, human; settings: YB-1 15 μM, capsaicin 50 μM, 1-6 h
Protocol: Human cancer cells (15,000 cells/well) in 96 well half area microplate (Cat #3882, Corning) were incubated overnight at 37° C., then compounds or DMSO control were added to the cell culture and incubated at 37° C. for 1-6 h. The cells were sequentially fixed with 4% formalin, permeabilized with 0.5% Triton X-100, blocked with 5% BSA in PBS, incubated with Human Phospho-Src (Y416) Antibody (Cat #MAB2685, R&D Systems) at rt for 2 h, incubated with the secondary antibody Goat Ant-Rabbit IgG H&L (Alexa Fluor 488) (Cat #ab150077, abeam) for 45 min, and incubated with DAPI (Cat #D9542, Sigma-Aldrich) for 5 min. Finally, the cells were washed and covered with PBS. The cell images were visualized on an inverted fluorescence microscope (Leica DMIL Fluorescent Inverted Microscope with Digital Camera, Leica Microsystems). Pictures were taken [FIGS. 14A-C. Green: Human Phospho-Src (Y416), the activated form of the Src protein; Blue: DAPI (stain nucleus of cell)]. The fluorescence intensity values from 5 random cells were averaged, subtracted by the background value (area between cells) and the blank value [the blank control without the Human Phospho-Src (Y416) Antibody], then plotted as percentage against the DMSO control to indicate the effects of compound treatment on the cellular Src kinase phosphorylation levels in the cancer cells (FIGS. 15A-D).

OVCAR-8 cell invasion = experiment: Cancer cell invasion assay, OVCAR-8; type: cell-based, human; settings: 24 h
Protocol: A cancer cell invasion assay was developed based on literature protocols (Methods 2005, 37, 208; EMBO J 2002, 21, 6289; Cellular Signalling 2012, 24, 1276.). Membrane matrix gel (Cat #A1413201, ThermoFisher) was diluted in ice-cold, serum-free RPMI 1640 Medium (Cat #31800022, ThermoFisher) at a concentration of 0.5-0.6 mg/mL. Then it was added to the upper compartment (100 μL per cup) of millicell inserts (Cat #PI8P01250, ThermoFisher) placed in a 24-well plate (Part no. 229123, Celltreat). The plate was incubated at 37° C. for 2 h to allow the liquid gel to solidify. RPMI 1640 Medium supplemented with 10% FBS (300 μL) was added to the well of the plate (lower compartment) as attractant, then DMSO or compounds were added. Human cancer cells (1×10^5 cells in 200 μL of RPMI 1640 Medium) were added to the upper compartment of the insert, then DMSO or compounds were added. After the plate was incubated at 37° C. for 24 h, the cells were fixed on the lower side of the insert membrane with 4% formaldehyde and stained with 1% crystal violet (Part no. IS12146, Innovating Science). The invaded cells on the lower side of the filter were counted under an inverted microscope equipped with either a 4× or a 10× objective (FIG. 11). The cell numbers from 5 random views were averaged and plotted as percentage against the DMSO control (FIG. 12A).

human TRPV3 = target: T2, human TRPV3 (Homo sapiens, UniProt Q8NET8); experiment: In vitro Ca2+ flux counter-screen in human TRPV3 overexpressing cells; type: cell-based; settings: counter-screen; read-out: TRPV3 EC50
T2 construct: expressed in transfected cells; host or cells: overexpressing cells
T2 sequence (Q8NET8 1-790): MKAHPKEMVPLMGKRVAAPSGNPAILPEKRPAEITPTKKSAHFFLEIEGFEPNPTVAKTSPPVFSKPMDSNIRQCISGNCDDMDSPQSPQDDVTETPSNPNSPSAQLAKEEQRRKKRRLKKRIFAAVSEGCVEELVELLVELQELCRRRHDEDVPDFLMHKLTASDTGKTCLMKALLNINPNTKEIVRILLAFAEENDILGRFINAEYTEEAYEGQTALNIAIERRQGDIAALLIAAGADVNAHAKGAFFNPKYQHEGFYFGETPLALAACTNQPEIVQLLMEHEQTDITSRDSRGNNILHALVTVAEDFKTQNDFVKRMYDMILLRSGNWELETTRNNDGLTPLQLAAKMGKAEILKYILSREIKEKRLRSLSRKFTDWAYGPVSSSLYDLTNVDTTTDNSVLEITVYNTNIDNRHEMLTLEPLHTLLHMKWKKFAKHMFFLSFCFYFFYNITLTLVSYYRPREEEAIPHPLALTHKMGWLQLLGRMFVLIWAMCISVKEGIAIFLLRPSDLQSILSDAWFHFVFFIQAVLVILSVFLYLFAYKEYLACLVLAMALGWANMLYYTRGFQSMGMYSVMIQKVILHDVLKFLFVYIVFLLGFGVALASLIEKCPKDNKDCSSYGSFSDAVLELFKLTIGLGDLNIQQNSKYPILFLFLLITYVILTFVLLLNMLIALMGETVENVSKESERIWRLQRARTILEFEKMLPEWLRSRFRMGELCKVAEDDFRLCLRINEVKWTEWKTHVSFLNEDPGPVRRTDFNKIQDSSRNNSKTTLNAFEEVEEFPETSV

MDA-MB-231 cell invasion = experiment: Cancer cell invasion assay, MDA-MB-231; type: cell-based, human; settings: 24 h
Method in brief: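 Transwell inserts were coated with membrane matrix gel (0.5-0.6 mg/mL) and loaded with 1×10^5 human cancer cells in RPMI 1640, with 10% FBS medium below as attractant. Compound or DMSO went into both compartments for 24 h at 37 °C. Invaded cells were fixed, crystal-violet stained, counted in 5 random fields and expressed as % of DMSO control.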

Aqueous solubility = type: physicochemical
Protocol: Chemical analysis and solubility tests were performed blind to the identity of the samples. Intermediates and final analogs were analyzed by NMR (JEOL 400 MHz NMR) and HPLC/MS (Waters Acquity UPLC with SQD Mass Spec) to confirm structures and purity. Final compounds were purified to achieve >95% purity based on HPLC analysis.

[2] = first treatment capsaicin 0.5 μM, YB-11 0.5 μM or YB-16 1.0 μM, paired t-test

T1 sequence (Q704Y3 whole entry): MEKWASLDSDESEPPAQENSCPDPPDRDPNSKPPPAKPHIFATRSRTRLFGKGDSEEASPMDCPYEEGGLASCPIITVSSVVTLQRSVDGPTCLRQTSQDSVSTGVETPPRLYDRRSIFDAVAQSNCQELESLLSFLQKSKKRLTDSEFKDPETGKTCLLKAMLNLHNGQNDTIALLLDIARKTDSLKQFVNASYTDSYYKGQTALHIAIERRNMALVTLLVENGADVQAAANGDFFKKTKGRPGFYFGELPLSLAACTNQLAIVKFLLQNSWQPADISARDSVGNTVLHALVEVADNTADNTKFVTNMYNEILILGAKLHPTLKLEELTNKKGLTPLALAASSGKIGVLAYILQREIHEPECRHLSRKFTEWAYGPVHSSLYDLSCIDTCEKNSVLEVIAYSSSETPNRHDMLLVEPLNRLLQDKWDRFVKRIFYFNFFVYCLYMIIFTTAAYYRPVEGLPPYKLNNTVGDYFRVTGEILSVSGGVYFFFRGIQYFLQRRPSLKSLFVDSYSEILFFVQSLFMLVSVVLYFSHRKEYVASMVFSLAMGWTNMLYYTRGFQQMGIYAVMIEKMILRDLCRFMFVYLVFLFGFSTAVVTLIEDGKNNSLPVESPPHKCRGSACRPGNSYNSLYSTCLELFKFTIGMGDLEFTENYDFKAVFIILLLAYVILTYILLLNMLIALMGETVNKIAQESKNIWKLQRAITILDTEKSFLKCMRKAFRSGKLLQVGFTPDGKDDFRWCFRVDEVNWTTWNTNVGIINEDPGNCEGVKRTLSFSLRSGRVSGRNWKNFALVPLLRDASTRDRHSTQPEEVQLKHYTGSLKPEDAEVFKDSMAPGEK

Compound: COc1cc(CNC(=O)CCCC/C=C/C(C)C)ccc1O [Capsaicin, trans-8-methyl-N-vanillyl-6-nonenamide, reference compound]
- TRPV1-sensitive neurons showing desensitization (TRPV1; first treatment 0.5 μM): 96%
- area under the curve of the Ca2+ signal of the second (capsaicin) application (TRPV1; [2]): statistically significant reduction; also recorded: significantly reduced
- max Ca2+ signal of the second (capsaicin) application (TRPV1; [2]): statistically significant reduction; also recorded: significantly reduced
- cellular Src kinase phosphorylation levels [1]: time-dependently reduced the cellular Src kinase phosphorylation levels
- inhibition of OVCAR-8 cell invasion (OVCAR-8 cell invasion): dose-dependently inhibited
- EC50 (human TRPV3): > 10 µM
- inhibition of MDA-MB-231 cell invasion (MDA-MB-231 cell invasion): dose-dependently inhibited
- solubility (Aqueous solubility): 13 µg/mL (≈ 42.6 µM)
